In the NIST ThermoML archive (doi:10.1021/je900414p):

Settings: Liquid

CCOS(=O)(=O)[O-].CCn1cc[n+](C)c1 [1-ethyl-3-methylimidazolium ethyl sulfate]
mass density [kg/m3]
Settings	100 kPa	2500 kPa	5000 kPa	10000 kPa	15000 kPa	20000 kPa	25000 kPa	30000 kPa	35000 kPa
283.15 K	1247.6	1248.59	1249.58	1251.56	1253.65	1255.44	1257.31	1259.18	1261.04
288.15 K	1244.17	1245.15	1246.17	1248.17	1250.14	1252.1	1254.03	1255.9	1257.77
293.15 K	1240.67	1241.7	1242.72	1244.75	1246.75	1248.72	1250.66	1252.56	1254.46
298.15 K	1237.33	1238.32	1239.36	1241.41	1243.42	1245.42	1247.38	1249.31	1251.22
303.15 K	1233.95	1234.96	1236.02	1238.1	1240.14	1242.15	1244.14	1246.11	1248.06
308.15 K	1230.49	1231.54	1232.6	1234.71	1236.78	1238.83	1240.83	1242.81	1244.76
313.15 K	1227.14	1228.21	1229.29	1231.41	1233.51	1235.57	1237.6	1239.6	1241.57
318.15 K	1223.86	1224.94	1226.03	1228.17	1230.31	1232.4	1234.44	1236.49	1238.47
323.15 K	1220.46	1221.54	1222.66	1224.85	1226.99	1229.11	1231.18	1233.23	1235.25
328.15 K	1217.07	1218.15	1219.31	1221.5	1223.69	1225.81	1227.93	1229.99	1232.04
333.15 K	1213.67	1214.63	1215.87	1218.14	1220.35	1222.53	1224.65	1226.74	1228.8
338.15 K	1210.4	1211.52	1212.68	1214.94	1217.17	1219.36	1221.51	1223.61	1225.71

CCO [ethanol]
mass density [kg/m3]
Settings	100 kPa	2500 kPa	5000 kPa	10000 kPa	15000 kPa	20000 kPa	25000 kPa	30000 kPa	35000 kPa
283.15 K	797.76	799.74	801.73	805.58	809.28	812.8	816.2	819.47	822.63
288.15 K	793.65	795.66	797.73	801.67	805.43	809.06	812.52	815.87	819.04
293.15 K	789.19	791.25	793.37	797.42	801.3	804.99	808.53	811.94	815.23
298.15 K	784.92	787.03	789.21	793.38	797.34	801.11	804.75	808.21	811.58
303.15 K	780.63	782.81	785.04	789.3	793.37	797.25	800.93	804.49	807.95
308.15 K	776.26	778.54	780.82	785.22	789.37	793.34	797.14	800.76	804.27
313.15 K	771.91	774.26	776.62	781.13	785.4	789.45	793.33	797.04	800.61
318.15 K	767.58	769.99	772.41	777.04	781.43	785.59	789.55	793.36	796.98
323.15 K	763.09	765.56	768.08	772.84	777.34	781.59	785.65	789.53	793.24
328.15 K	758.54	761.09	763.7	768.58	773.22	777.57	781.73	785.7	789.5
333.15 K	753.96	756.61	759.27	764.32	769.08	773.56	777.81	781.87	785.76
338.15 K	749.42	752.16	754.89	760.09	764.99	769.59	773.96	778.09	782.06
343.15 K	744.74	747.57	750.39	755.74	760.75	765.47	769.94	774.17	778.23
